Measurements reported in the CheMixHub viscosity set.
“And” between values parts separate entries of the source, which are not always exact repeats. Equal values may be shown once.

What was measured:
[1] = xn = mol fraction of the nth substance listed

CC(C)OC(C)C
viscosity
Settings	293.15 K	298.15 K	303.15 K	308.15 K	313.15 K	318.15 K	323.15 K
100 kPa	0.332 mPa·s	0.319 mPa·s	0.304 mPa·s	0.29 mPa·s and 0.29 mPa·s	0.274 mPa·s	0.261 mPa·s	0.246 mPa·s
101 kPa	–	0.315 mPa·s	–	–	–	–	–
101.33 kPa	0.34 mPa·s	0.322 mPa·s	0.31 mPa·s	0.293 mPa·s	0.279 mPa·s	–	–

C#CCO + O
viscosity [mPa·s], [1]
Settings	303.15 K	308.15 K	313.15 K	318.15 K	323.15 K
101 kPa, x1 = 0.1	1.094	0.9708	0.8728	0.7923	0.7208
101 kPa, x1 = 0.166	1.191	1.06	0.9534	0.8633	0.7845
101 kPa, x1 = 0.3	1.275	1.135	1.023	0.9273	0.845
101 kPa, x1 = 0.4	1.291	1.157	1.048	0.9513	0.8707
101 kPa, x1 = 0.499	1.296	1.165	1.054	0.9624	0.8802
101 kPa, x1 = 0.599	1.309	1.179	1.069	0.9758	0.8933
101 kPa, x1 = 0.7	1.313	1.188	1.079	0.9844	0.902
101 kPa, x1 = 0.801	1.327	1.202	1.092	0.9977	0.9169
101 kPa, x1 = 0.899	1.33	1.204	1.095	1	0.9179
101.32 kPa, x1 = 0.1138	–	0.9894	0.8862	0.7991	0.7267
101.32 kPa, x1 = 0.2351	–	1.105	0.9927	0.8936	0.8222
101.32 kPa, x1 = 0.3145	–	1.149	1.034	0.9365	0.8508
101.32 kPa, x1 = 0.4174	–	1.171	1.059	0.9551	0.8741
101.32 kPa, x1 = 0.5002	–	1.186	1.069	0.9676	0.8856
101.32 kPa, x1 = 0.61	–	1.194	1.077	0.9877	0.8958
101.32 kPa, x1 = 0.7185	–	1.2	1.085	0.9924	0.9072
101.32 kPa, x1 = 0.8223	–	1.209	1.095	1	0.9191
101.32 kPa, x1 = 0.9	–	1.216	1.107	1.007	0.9223
